The structures appear in SMILES notation.

Usually IC50 stands for the concentration that gives 50% inhibition.

For assay [1], the system named is CD23 processing enzyme. Put plainly: Membrane CD23 cleavage activity assay (sCD23 release from plasma membranes of RPMI 8866 cells). Type of assay: biochemical, human. To be noted: membranes; read-out: IC50 for inhibition of CD23 processing (production of sCD23). On the procedure:
Membrane CD23 cleavage activity assay:
Plasma membranes from RPMI 8866 cells, a human Epstein-Barr virus transformed B-cell (Sarfati et al., Immunology 60 (1987) 539-547), or a similar cell line expressing high levels of CD23 are purified using an aqueous extraction method. Cells resuspended in homogenization buffer (20 mM HEPES pH 7.4, 150 mM NaCl, 1.5 mM MgCl2, 1 mM DTT) are broken by N2 cavitation in a Parr bomb and the plasma membrane fraction mixed with other membranes recovered by centrifugation at 10,000×g. The light pellet is resuspended in 0.2 M potassium phosphate, pH 7.2 using 2 ml per 1-3 g wet cells and the nuclear pellet is discarded. The membranes are further fractionated by partitioning between Dextran 500 (6.4% w/w) and polyethylene glycol (PEG) 5000 (6.4% w/w) at 0.25 M sucrose in a total of 16 g per 10-15 mg membrane proteins (Morre and Morre, BioTechniques 7, 946-957 (1989)). The phases are separated by brief centrifugation at 1000×g and the PEG (upper) phase is collected, diluted 3-5 fold with 20 mM potassium phosphate buffer pH 7.4, and centrifuged at 100,000×g to recover membranes in that phase. The pellet is resuspended in phosphate-buffered saline and consists of 3-4 fold enriched plasma membranes as well as some other cell membranes (e.g. lysosomes, Golgi). The membranes are aliquoted and stored at -80° C. Fractionation at 6.6% Dextran/PEG yields plasma membranes enriched 10-fold.
The fractionated membranes are incubated at 37° C. for times up to 4 hours to produce fragments of CD23 which are separated from the membrane after quenching the assay with 5 uM compound 1 by centrifugation at 10,000×g. These CD23 fragments are consistent with those reported (Letellier et al, J Exp. Med. 172, 693-700 (1990)): MW, app 36-37 kDa as determined by 12% sodium dodecylsulfate-polyacrylamide electrophoresis (SDS-PAGE) of N-terminal sequence QKSQ; MW, app 33 kDa with N-terminal sequence LKSQ. Additional bands not sequenced: MW, app 28-29 kDa and a doublet at 25-26 kDa. These are detected by Western blot of the total protein in the incubation using a polyclonal antibody such as the polyclonal anti-CD23 antibody in The Binding Site (Birmingham, UK) enzyme-linked immunoassay (EIA) Bindazyme kit for the determination of soluble CD23. Following removal of the membrane by centrifugation or filtration in 0.2 micron filter plates (Durapore, Millpore), sCD23 can also be determined using the EIA kit from The Binding Site or a similar one utilizing MHM6 anti-CD23 mAb (Rowe et al., Int. J. Cancer, 29, 373-382 (1982)) or another anti-CD23 mAb as the capture antibody in a sandwich EIA. […] Samples were incubated at 37° C. for the varying times, quenched with compound 1, applied to 12% SDS-PAGE, and Western blotting on PVDF (Bio-Rad) membrane performed using standard methodology with a combination of BD4 (prepared as described in Biological example 2) and a polyclonal antibody which recognizes all soluble fragments as the primary antibody. The blot was developed by ECL, scanned using a BioImage system and quantitated using the Visage analysis package.
Inhibition of CD23 processing can also be determined by Western blot or by the 5 EIA (Elisa) method. The amount of soluble CD23 made by 0.5-5 ug membrane protein is measured either by quantitation of the Western blot as described using a Millipore BioImage system, or by EIA and compared to the amount made in the presence of various concentrations of inhibitors. Inhibitors are prepared in solutions of water or dimethylsulfoxide (DMSO) and the final DMSO concentration is not more than 2%. The enzyme activity of CD23 processing is inhibited by 1,10-phenanthroline (1 mM), and not by 1,7-phenanthroline (1 mM), PMSF (1 mM), E-64 (10 uM), pepstatin (10 uM), leupeptin (10 uM), or tosyl-leucylchloroketone (100 uM), and weakly by phosphoramidon (40% inhibition at 100 uM). The enzyme can heretofore best be described as a metalloprotease rather than a serine, cysteine or acid protease. […]

In assay [2] the test system is solubilized membrane proteins from BJAB cells. Nature of the assay: Photolabeling of Superose 12 column fractions of solubilized membrane proteins, SDS-PAGE. The assay is classed as binding. To be noted: 1 uM compound 3, long UV, 1 min, Superose 12 fractions, single band. On the procedure: Compound 3 is an inhibitor of CD23 processing in membranes with an IC50 of about 1-3 uM. Compound 3 (the synthesis of which is described in the Synthetic Examples section as Example 9), is [N-[4-N'-Hydroxyamino-2-(R)-2-(2-methylpropyl)succinyl]-S-4-azidophenylalanine-N"-(6-biotinoylaminohexyl)amide]. Compound 3 was prepared for use as a photolabeling agents as follows. [drawing 1]
Column fractions from a Superose 12 column of solubilized membrane proteins from BJAB cells were photolabeled with 1 uM compound 3 using a Sunlit phosphor lamp at long UV for 1 min. […] Active fractions from RPMI 8866 fractionations are similarly photolabeled.
Fractions were concentrated, photolabeled as described, applied to 12% SDS-PAGE, blotted to PVDF and photolabeled material detected with streptavidin-horseradish peroxidase (streptavidin-HRP) using ECL (Amersham) methodology. Fraction "0" indicates the photolabeling observed in an unfractionated sample. The 45 kDa MW marker protein migrated with an elution volume corresponding to fractions 17 or 18. The fraction sizes are not the same as FIG. 7.

Assay [3] relates to CD23 processing enzyme. Put plainly: Photolabeling of membranes or solubilized membrane proteins containing the CD23 processing enzyme, 12% SDS-PAGE / 2-dimensional gel electrophoresis. Type of assay: binding. To be noted: 2-dimensional gel electrophoresis; 0.1 to 0.3 uM compound 4 or 1 uM compound 3. On the procedure:
Compound 4 (Synthetic Example 17), Compound 5 (Synthetic Example 17a), Compound 6 (Synthetic Example 25), and Compound 7 (Synthetic Example 27) can also be used to photolabel membranes or solubilized membrane proteins containing the CD23 processing enzyme, using the same method described for compound 3. Analysis by 12% SDS-PAGE and ECL detection of biotinylated protein, using streptavidin-HRP detects several bands in the molecular weight range 50-65 kDa.
Up to 200 ug of membrane proteins in PBS were solubilized in 0.1 % NP-40 and photolabeled with 0.1 to 0.3 uM compound 4 or 1 uM compound 3 as described for compound 3 above. The sample was then dialyzed vs. 10 mM potassium phosphate pH 7.5, 0.1% NP-40, concentrated in a Centricon 10 (Amicon, Beverly Mass.), then made 8 M in urea, 2% in Triton X-100, 0. 8% in Pharmalyte 3-10 (Pharmacia) and 50 mM in DTT. After electrophoresis in both dimensions, the proteins were blotted to PVDF, and biotinylated proteins detected with streptavidin-HRP as described above. The majority of the minor biotinylated spots observed were in the molecular weight range 50-65 kDa and were acidic proteins with pH in the range 4.5-6.0.

With `CC(C)C[C@H](CC(=O)NO)C(=O)N[C@@H](Cc1ccc(N=[N+]=[N-])cc1)C(=O)NCCCCCCNC(=O)CCCC[C@@H]1SC[C@@H]2NC(=O)N[C@@H]21` [Compound 3, N-[4-N'-Hydroxyamino-2-(R)-2-(2-methylpropyl)succinyl]-S-4-azidophenylalanine-N"-(6-biotinoylaminohexyl)amide], the half-maximal inhibitory concentration (IC50) in assay [1] lay in the range of 1 to 3 µM. For the same compound, the “MW, app of photolabeled band” value in assay [2] was 45 kDa. In addition, in assay [3], the “molecular weight range of majority of minor biotinylated spots” value is reported as 50-65 kDa and the “pH range of minor biotinylated spots (acidic proteins)” value is on record as 4.5-6.0.

The values above are taken from patent publication US6232089A, “CD23 processing enzyme preparation” (SmithKline Beecham Corporation, priority 1998, dated 2001).
